Assay: xn = mol fraction of the nth substance listed
Details: Liquid, Vibrating tube method

CC(C)O [propan-2-ol] + O=C=O
Details	mass density [kg/m3]
323.05 K, 7910 kPa, x2 = 0.6086	781.7
323.05 K, 8002 kPa, x2 = 0.139	777.6
323.05 K, 8009 kPa, x2 = 0.6086	782.2
323.05 K, 8208 kPa, x2 = 0.6086	783.1
323.05 K, 8404 kPa, x2 = 0.6086	784.1
323.05 K, 8527 kPa, x2 = 0.139	778.3
323.05 K, 8528 kPa, x2 = 0.9715	303.9
323.05 K, 8607 kPa, x2 = 0.6086	785
323.05 K, 8800 kPa, x2 = 0.6086	785.8
323.05 K, 9004 kPa, x2 = 0.6086	786.7
323.05 K, 9031 kPa, x2 = 0.9715	381.9
323.05 K, 9033 kPa, x2 = 0.139	778.8
323.05 K, 9107 kPa, x2 = 0.9492	526.2
323.05 K, 9301 kPa, x2 = 0.6086	788
323.05 K, 9400 kPa, x2 = 0.9492	575.3
323.05 K, 9501 kPa, x2 = 0.6086	788.9
323.05 K, 9519 kPa, x2 = 0.139	779.4
323.05 K, 9535 kPa, x2 = 0.9715	467.3
323.05 K, 9702 kPa, x2 = 0.6086	789.8
323.05 K, 9710 kPa, x2 = 0.9492	607
323.05 K, 9805 kPa, x2 = 0.6086	790.2
323.05 K, 10015 kPa, x2 = 0.9492	628.2
323.05 K, 10046 kPa, x2 = 0.9715	540
323.05 K, 10301 kPa, x2 = 0.9492	644.3
323.05 K, 10501 kPa, x2 = 0.9715	577.6
323.05 K, 10600 kPa, x2 = 0.9492	658.2
323.05 K, 10904 kPa, x2 = 0.9492	670.3
323.05 K, 11011 kPa, x2 = 0.9715	612.9
323.05 K, 11211 kPa, x2 = 0.9492	681.1
323.05 K, 11508 kPa, x2 = 0.9492	689.9
323.05 K, 11512 kPa, x2 = 0.9715	638.9
323.05 K, 11807 kPa, x2 = 0.9492	698.3
323.05 K, 12028 kPa, x2 = 0.9715	660.4
323.05 K, 12106 kPa, x2 = 0.9492	705.9
323.05 K, 12404 kPa, x2 = 0.9492	712.6
323.05 K, 12516 kPa, x2 = 0.9715	677
323.05 K, 12703 kPa, x2 = 0.9492	719.2
323.05 K, 13006 kPa, x2 = 0.9492	725.5
323.05 K, 13014 kPa, x2 = 0.9715	691.5
323.05 K, 13309 kPa, x2 = 0.9492	731.4
323.05 K, 13558 kPa, x2 = 0.9715	705.3
323.05 K, 13608 kPa, x2 = 0.9492	736.7
323.05 K, 13907 kPa, x2 = 0.9492	742
323.05 K, 14003 kPa, x2 = 0.9715	715.4
323.05 K, 14210 kPa, x2 = 0.9492	746.8
323.05 K, 14504 kPa, x2 = 0.9492	751.1
323.05 K, 14516 kPa, x2 = 0.9715	725.9
323.05 K, 14804 kPa, x2 = 0.9492	755.1
323.05 K, 15024 kPa, x2 = 0.9715	735.4
323.05 K, 15506 kPa, x2 = 0.9715	743.6
323.06 K, 8724 kPa, x2 = 0.7943	745.3
323.06 K, 8802 kPa, x2 = 0.7943	746.6
323.06 K, 8905 kPa, x2 = 0.7943	747.9
323.06 K, 9005 kPa, x2 = 0.7943	749.2
323.06 K, 9204 kPa, x2 = 0.7943	751.6
323.06 K, 9410 kPa, x2 = 0.7943	753.9
323.06 K, 9606 kPa, x2 = 0.7943	756.2
323.06 K, 9792 kPa, x2 = 0.7943	758.2
323.06 K, 10001 kPa, x2 = 0.7943	760.2
323.06 K, 10310 kPa, x2 = 0.7943	763.1
323.07 K, 4004 kPa, x2 = 0.2003	775.4
323.07 K, 4307 kPa, x2 = 0.2003	775.8
323.07 K, 4497 kPa, x2 = 0.2003	776.1
323.07 K, 4802 kPa, x2 = 0.2003	776.6
323.07 K, 5014 kPa, x2 = 0.2003	776.9
323.07 K, 5510 kPa, x2 = 0.2003	777.5
323.07 K, 6029 kPa, x2 = 0.2003	778.3
323.07 K, 6513 kPa, x2 = 0.2003	779
323.07 K, 7000 kPa, x2 = 0.2003	779.7
323.07 K, 7519 kPa, x2 = 0.2003	780.5
323.07 K, 8013 kPa, x2 = 0.2003	781.1
323.07 K, 8543 kPa, x2 = 0.2003	781.8
323.07 K, 9139 kPa, x2 = 0.2003	782.5
323.07 K, 9497 kPa, x2 = 0.2003	783
323.07 K, 10068 kPa, x2 = 0.2003	783.8
332.97 K, 9739 kPa, x2 = 0.7943	686.8
332.97 K, 9804 kPa, x2 = 0.7943	689.2
332.97 K, 9901 kPa, x2 = 0.7943	691.4
332.97 K, 10001 kPa, x2 = 0.7943	693.5
332.97 K, 10101 kPa, x2 = 0.7943	695.6
332.97 K, 10201 kPa, x2 = 0.7943	697.8
332.97 K, 10302 kPa, x2 = 0.7943	699.9
332.97 K, 10404 kPa, x2 = 0.7943	701.7
332.97 K, 10507 kPa, x2 = 0.7943	703.7
332.97 K, 10606 kPa, x2 = 0.7943	705.4
332.97 K, 10808 kPa, x2 = 0.7943	708.9
332.97 K, 11007 kPa, x2 = 0.7943	712
332.97 K, 11204 kPa, x2 = 0.7943	715
332.97 K, 11404 kPa, x2 = 0.7943	717.8
332.97 K, 11607 kPa, x2 = 0.7943	720.5
332.97 K, 11805 kPa, x2 = 0.7943	722.9
332.97 K, 12004 kPa, x2 = 0.7943	725.3
332.99 K, 2861 kPa, x2 = 0.139	759.8
332.99 K, 3000 kPa, x2 = 0.139	760
332.99 K, 3297 kPa, x2 = 0.139	760.4
332.99 K, 3495 kPa, x2 = 0.139	760.7
332.99 K, 4008 kPa, x2 = 0.139	761.5
332.99 K, 4509 kPa, x2 = 0.139	762.2
332.99 K, 5030 kPa, x2 = 0.139	762.8
332.99 K, 6502 kPa, x2 = 0.139	764.9
332.99 K, 7005 kPa, x2 = 0.139	765.6
332.99 K, 7501 kPa, x2 = 0.139	766.3
332.99 K, 8010 kPa, x2 = 0.139	766.9
332.99 K, 8521 kPa, x2 = 0.139	767.6
332.99 K, 9040 kPa, x2 = 0.139	768.3
332.99 K, 9511 kPa, x2 = 0.139	768.8
332.99 K, 9974 kPa, x2 = 0.139	769.5
332.99 K, 10561 kPa, x2 = 0.9492	502.4
332.99 K, 10601 kPa, x2 = 0.9492	506.6
332.99 K, 10709 kPa, x2 = 0.9492	517.4
332.99 K, 10810 kPa, x2 = 0.9492	526.9
332.99 K, 10910 kPa, x2 = 0.9492	536.2
332.99 K, 11209 kPa, x2 = 0.9492	560.9
332.99 K, 11503 kPa, x2 = 0.9492	580
332.99 K, 11803 kPa, x2 = 0.9492	596
332.99 K, 12102 kPa, x2 = 0.9492	611.4
332.99 K, 12404 kPa, x2 = 0.9492	624.7
332.99 K, 12705 kPa, x2 = 0.9492	635.9
332.99 K, 13010 kPa, x2 = 0.9492	645.6
332.99 K, 13302 kPa, x2 = 0.9492	654.5
332.99 K, 13603 kPa, x2 = 0.9492	663.6
332.99 K, 13906 kPa, x2 = 0.9492	671.7
332.99 K, 14213 kPa, x2 = 0.9492	678.9
332.99 K, 14513 kPa, x2 = 0.9492	684.7
333.02 K, 7301 kPa, x2 = 0.4248	770.1
333.02 K, 7408 kPa, x2 = 0.4248	770.5
333.02 K, 7506 kPa, x2 = 0.4248	770.6
333.02 K, 7613 kPa, x2 = 0.4248	771
333.02 K, 7806 kPa, x2 = 0.4248	771.4
333.02 K, 8005 kPa, x2 = 0.4248	772
333.02 K, 8209 kPa, x2 = 0.4248	772.6
333.02 K, 8226 kPa, x2 = 0.6086	753.6

Source: the NIST ThermoML archive (doi:10.1021/je700321s)
